# Tests used:
# [1] = test system: patients with mild or mild/moderate AD; test: LMTM Phase 3 exposure groups against historical placebo meta-analysis; format: in vivo, human; conditions: 8mg/day
# healthy volunteers [2] = test system: healthy volunteers
# healthy volunteers [3] = test: Brain spectroscopy after NR supplementation; format: in vivo, human; conditions: two weeks of NR supplementation
# AD and PD patients = test: Posiphen phase 2a studies in AD and PD; format: in vivo, human
# [4] = test system: patients with agitation in Alzheimer’s dementia; test: Brexpiprazole phase 3 studies, post-hoc CMAI-IPA; format: in vivo, human
# [5] = test system: patients with agitation in Alzheimer’s dementia; test: Brexpiprazole phase 3 pooled CGI-S and CMAI responder analysis; format: in vivo, human
# PSEN1-AD neurons = conditions: screen of existing drug library; earlier work of the authors; cited from earlier work
# patients with MCI or PD [6] = test: Cerebral blood flow by pCASL MRI after clenbuterol; format: in vivo, human
# patients with MCI or PD [7] = test: Safety and tolerability of single doses of clenbuterol; format: in vivo, human
# [8] = test system: patients with AD and agitation/aggression; test: Lit-AD randomized trial of low-dose lithium; format: in vivo, human
# [9] = test system: subjects with moderate AD; test: Masupirdine phase-2 trial, NPI-12 agitation/aggression subgroup analysis; format: in vivo, human
# [10] = test system: subjects with moderate AD; test: Masupirdine phase-2 trial, NPI-12 psychosis subgroup analysis; format: in vivo, human
# [11] = test system: patients with PD psychosis and PD dementia; test: HARMONY trial, post hoc PD dementia subgroup; format: in vivo, human
# [12] = test system: patients with mild-to-moderate AD; test: Open-label study of simufilam, interim analysis; format: in vivo, human
# AD patients = conditions: cited from earlier work
# GRN mutation carriers = conditions: repeat administration; earlier Phase 2 study; cited from earlier work
# [13] = first dose 80µg, 3 hours post-dose, n=8
# [14] = second visit, 1mg nadolol 2.5 hours before clenbuterol, n=4
# [15] = second visit, clenbuterol monotherapy, n=4
# [16] = 80µg single dose, patients affected
molecule,measurement,setting,value
"CN(C)c1ccc2c(c1)Sc1cc(N(C)C)ccc1N2.CS(=O)(=O)O.CS(=O)(=O)O [LMTM, leuco-methylthionine dihydromesylate]",decline on ADAS-cog11 over 12 months,[1]; above-threshold plasma levels,1.58±0.46 units
same,decline on ADAS-cog11 over 12 months,[1]; below-threshold exposure,4.74±0.60 units
CC(=O)Nc1nc(F)c(CN2CC[C@H](OCc3noc(C)n3)C[C@@H]2C)s1 [LY3372689],maximum tolerated dose,healthy volunteers [2]; SAD,not achieved
same,tolerability,healthy volunteers [2]; up to the highest dose in each study,generally well tolerated
same,food effect on AUC,"3 mg QD, fed vs fasted",minimal effect
same,"food effect, decrease of Cmax","3 mg QD, fed vs fasted",43%
same,"food effect, increase of tmax","3 mg QD, fed vs fasted",5 h
same,exposure (AUC and Cmax) vs dose,"SAD 0.15–16 mg and MAD 1, 3, 7 mg",generally dose-proportional
same,renal clearance,single or multiple dosing,not a major contributor
"NC(=O)c1ccc[n+]([C@@H]2O[C@H](CO)[C@@H](O)[C@H]2O)c1 [NR, Nicotinamide Riboside]",CK/ATPase activity and GSH levels,healthy volunteers [3]; N=4,Only a small difference
same,brain NAD+ and redox ratio (RR),"healthy volunteers [3]; N=4, preliminary",elevations
CN1CC[C@]2(C)c3cc(OC(=O)Nc4ccccc4)ccc3N(C)[C@H]12 [Posiphen],Aβ42/40 ratio,AD and PD patients; AD patients,improved
same,axonal health as measured by NfL,AD and PD patients; AD patients,improved axonal health
same,"sAPPα, sAPPβ, Tau, p-Tau",AD and PD patients; AD patients,reduced
same,ADAS-Cog 11,"AD and PD patients; AD patients, 80 mg QD for 25 +/− 2 days, vs baseline",statistically significant improvements
same,WAIS coding,"AD and PD patients; AD patients, 80 mg QD, vs baseline",statistically significant improvements
same,"UPDRS, all 4 parts",AD and PD patients; PD patients,strong trends
same,WAIS coding test,AD and PD patients; PD patients,statistically significant improvements
same,inflammation,"AD and PD patients; treated patients, to baseline or to placebo",statistically significantly lowered
O=c1ccc2ccc(OCCCCN3CCN(c4cccc5sccc45)CC3)cc2[nH]1 [brexpiprazole],"CMAI-IPA, adjusted mean difference vs placebo","[4]; Study 1, 2 mg/day (n=138) vs placebo (n=131), baseline to Week 12, MMRM",−2.34
same,"CMAI-IPA, adjusted mean difference vs placebo","[4]; Study 2, titrated to 2 mg/day (n=77) vs placebo (n=74), Week 12, MMRM",−2.79
same,patients with CGI-S score of 1 or 2,"[5]; 2 mg/day, week 12, 140/237",59.1%
same,patients with improvement in CMAI of at least 10 points,"[5]; 2 mg/day, week 12, 177/237",74.7%
same,patients with improvement on CGI-S of at least 1 point,"[5]; 2 mg/day, week 12, 188/237",79.3%
same,"difference vs placebo, CGI-S score of 1 or 2","[5]; week 12, p = 0.0033",13.5%
same,"difference vs placebo, CMAI improvement of at least 10 points","[5]; week 12, p = 0.0550",8.0%
same,"difference vs placebo, CGI-S improvement of at least 1 point","[5]; week 12, p=0.0048",11.4%
CC(C)C[C@H]1C(=O)N2CCC[C@H]2[C@]2(O)O[C@](NC(=O)[C@@H]3C=C4c5cccc6[nH]c(Br)c(c56)C[C@H]4N(C)C3)(C(C)C)C(=O)N12 [bromocriptine],modification of Aβ production,PSEN1-AD neurons,most potent modifier of Aβ production
CC(C)(C)NCC(O)c1cc(Cl)c(N)c(Cl)c1 (centres unmarked) [clenbuterol],"increase in CBF, amygdala",patients with MCI or PD [6]; [13],14.3%
same,"increase in CBF, hippocampus",patients with MCI or PD [6]; [13],20.3%
same,"increase in CBF, thalamus",patients with MCI or PD [6]; [13],13.1%
same,"Mean Relative Difference in perfusion, hippocampus",patients with MCI or PD [6]; [14],13.7±5.9%
same,"Mean Relative Difference in perfusion, thalamus",patients with MCI or PD [6]; [14],16.2±5.2%
same,"Mean Relative Difference in perfusion, amygdala",patients with MCI or PD [6]; [15],8.1±11.5%
same,"Mean Relative Difference in perfusion, hippocampus",patients with MCI or PD [6]; [15],18.6±15.1%
same,"Mean Relative Difference in perfusion, thalamus",patients with MCI or PD [6]; [15],21.0±10.8%
same,"increase in heart rate, mean [SD]",patients with MCI or PD [7]; 80µg single dose,12.9 [8.2] bpm
same,palpitations,patients with MCI or PD [7]; [16],1/8
same,tremor,patients with MCI or PD [7]; [16],4/8
same,safety and tolerability,patients with MCI or PD [7]; single doses of 80µg,safe and well tolerated
"O=C([O-])[O-].[Li+].[Li+] [lithium, lithium carbonate]",moderate or marked improvement (CGI),[8]; 12 weeks,36.8%
same,proportion of responders,"[8]; 30% reduction in NPI agitation/aggression plus psychosis and CGI much or very much improved, 12 weeks",31.6%
same,reduction vs placebo in patients with high Young Mania Rating Scale scores (β),[8]; 95%CI 1.18 to 8.94,5.06
same,improvement on NPI delusions and irritability/lability,[8]; exploratory analyses,greater than placebo
same,change in NPI agitation/aggression,"[8]; lithium carbonate 150–600 mg daily, 12 weeks, linear mixed effects model",not significantly superior to placebo
same,safety outcomes,[8]; vs placebo,did not differ significantly from placebo
COc1ccc2c(c1)c(CN1CCN(C)CC1)cn2S(=O)(=O)c1ccccc1Br [masupirdine],"effect size (Cohen’s d), agitation/aggression","[9]; 50 mg, end of 26 weeks",0.66
same,NPI-12 agitation/aggression scores,"[9]; 50 & 100 mg arms, Week 13, MMRM",statistically significant (p<0.01) reduction
same,NPI-12 psychosis score vs placebo,"[10]; 50 mg, Week 4 & 13, p<0.05, MMRM",significant reduction
same,NPI-12 psychosis score vs placebo,"[10]; 100 mg, Week 26, p<0.1",trend
CC(C)(C)NCC(O)COc1cccc2c1CC(O)C(O)C2 (centres unmarked) [nadolol],peripheral cardiovascular and metabolic effects of clenbuterol,patients with MCI or PD [7]; 1mg nadolol 2.5 hours before clenbuterol,mostly eliminated
CC(C)COc1ccc(CNC(=O)N(Cc2ccc(F)cc2)C2CCN(C)CC2)cc1 [pimavanserin],sustained response at weeks 8 and 12,"[11]; 34 mg, open-label period, 36 of 49",73.5%
same,patients who met relapse criteria,"[11]; at the time the study was stopped, n=16",1
same,any TEAE,[11]; double-blind period,31.3%
same,serious TEAEs,[11]; double-blind period,No patients
same,"risk of psychosis relapse, hazard ratio vs placebo","[11]; double-blind period, Cox regression, 95% CI 0.016, 0.166",0.052
same,any TEAE,[11]; open-label period,46.9%
same,decreased appetite,[11]; open-label period,8.2%
same,fall,[11]; open-label period,6.1%
same,insomnia,[11]; open-label period,8.2%
same,serious TEAE,[11]; open-label period,10.2%
same,somnolence,[11]; open-label period,8.2%
same,urinary tract infection,[11]; open-label period,6.1%
same,weight decreased,[11]; open-label period,8.2%
same,MMSE mean change from baseline,"[11]; open-label, baseline to week 12, SE 0.66",0.3
same,ESRS-A mean change from baseline,"[11]; open-label, baseline to week 12, SE 0.74",−1.7
same,complete response (SAPS-H+D score=0),"[11]; week 12, of 38 patients evaluated",42.1%
CN1CCC2(CC1)NCC(=O)N2Cc1ccccc1 [simufilam],ADAS-Cog11 mean change from baseline to Month 12,"[12]; 100 mg twice-daily oral, first 50 subjects, open-label",−3.23 ± 6.25 points
same,safety and tolerability,[12]; 12 months,safe and well-tolerated
same,subjects with no neuropsychiatric symptoms (NPI),"[12]; 12 months, baseline 34%",over 50%
same,"ADAS-Cog11 score, mean","[12]; Month 12, Day 1 mean 16.73 ± 7.86",13.51 ± 9.20
same,subjects with improved ADAS-Cog11 scores,"[12]; baseline to Month 12, 50 subjects",68%
same,ADAS-Cog11 median change,"[12]; baseline to Month 12, first 50 subjects",−4.0 points
Sola: monoclonal antibody comparator (Expedition 1–3),"ADAS-Cog effect size, slowing",AD patients; Expedition 1+2 mild individuals,34.8%
same,"ADCS-ADL effect size, slowing",AD patients; Expedition 3,15.4%
same,"CDR-SB effect size, slowing",AD patients; Expedition 3,15.4%
"AL001: human monoclonal IgG1 antibody that blocks and downregulates Sortilin (antibody, chains of the INN, looked up, V domains shown) VH: QVQLQESGPGLVKPSETLSLTCAVSGYSISSGYYWGWIRQPPGKGLEWIGTIYHSGSTYYNPSLKSRVTISVDTSKNQFSLKLSSVTAADTAVYYCARQGSIKQGYYGMDVWGQGTTVTVSS VL: DIVMTQSPLSLPVTPGEPASISCRSSQSLLRSTGYNYLDWYLQKPGQSPQLLIYLGSNRASGVPDRFSGSGSGTDFTLKISRAEAEDVGVYYCMQQQEAPLTFGGGTKVEIK",CSF PGRN levels,GRN mutation carriers,normalize CSF PGRN levels

# Reference: PMC8589634 (The Journal of Prevention of Alzheimer's Disease, 2021)
